# From patent US9216183B2, “Topical treatment for chemotherapy induced eyelash loss or hypotrichosis using prostamide F2 alpha agonists” (ALLERGAN, INC., priority 2002, dated 2015)
# How the values were obtained:
# [1] = tested on: eyelashes of subjects with chemotherapy-induced hypotrichosis; experiment: Digital image analysis of upper eyelash length, thickness, darkness, chemotherapy-induced hypotrichosis; format: in vivo, human; conditions: for Upper eyelash length, median percent change from baseline / Upper eyelash thickness, median percent change from baseline / Upper eyelash darkness, median percent change from baseline: chemotherapy-induced; for Upper eyelash darkness, median percent change from baseline / Mean change from baseline in eyelash darkness: negative = darker
# Experimental: Efficacy was also assessed using more conservative criteria of 2-grade improvement in GEA. […] In addition to the investigator global assessment (GEA) and subjects own assessment (ESQ), the eyelash length, thickness/fullness and darkness were measures using digital image analysis. Secondary efficacy measures were based on digital image analysis (DIA) of eyelash characteristics: upper eyelash length (millimeters [mm]), thickness (mm^2), and darkness (intensity units). For darkness, a negative value in terms of change from baseline indicated darker eyelashes. Upper eyelash characteristics of length, thickness, and darkness were determined by a validated DIA method. The reliability and reproducibility of DIA have been verified within the acceptance criteria of 0.05% or less of mean coefficient of variance. The principal variables for the secondary efficacy assessments are: change from baseline in upper eyelash length (mm), average progressive eyelash thickness (mm^2), and eyelash darkness (intensity units) at months 4, 6, 10, and 12 or early termination. Descriptive statistics of the raw value at baseline and percent change from baseline at follow-up visits were summarized by treatment group for each principal measure of the 3 secondary variables of eyelash characteristics. Between-group comparisons were performed using a van Elteren test stratified by hypotrichosis etiology.
# [2] = Safety (adverse events, IOP), chemotherapy-induced hypotrichosis subpopulation; format: in vivo, human
# Experimental: Safety measures included adverse events (AEs), ophthalmic examination (ophthalmoscopy [dilated], biomicroscopy, IOP, iris color assessment, and BCVA). AEs were monitored throughout the study by the investigator.
# The 12-month data were the primary focus of the safety evaluation. Safety data were summarized with descriptive statistics (n, or frequency distributions [counts or percentages]). Biomicroscopic examinations and assessments of iris color, IOP, and BCVA were performed for each subject at screening/baseline and months 1, 2, 4, 6, 8, and 12 (or early termination prior to month 12); ophthalmoscopic examinations (dilated) were performed at screening/baseline and months 6 and 12 (or early termination prior to month 12). Two IOP measurements were taken for each eye at each visit; a third measurement was taken if the difference between the first 2 measurements was more than 2 mm Hg. The average or median IOP was determined in the event that 2 or 3 measurements were made, respectively. The IOP value analyzed at each visit was the average IOP of the subject's 2 eyes. Change and percent change from baseline in IOP were summarized by descriptive statistics. Between-group comparison will be performed using the 1-way analysis of variance.
# [3] = postchemotherapy, Month 4, bimatoprost from day 1
# [4] = postchemotherapy, Month 4, bimatoprost from day 1, listed as Bim/Bim
# [5] = postchemotherapy, Month 6, bimatoprost from day 1
# [6] = postchemotherapy, Month 6, bimatoprost from day 1, listed as Bim/Bim
# [7] = postchemotherapy, Month 6, bimatoprost from day 1, listed as bimatoprost
# [8] = postchemotherapy, Month 10, Bim/Bim
# [9] = postchemotherapy, Month 10, Veh/Bim (bimatoprost since month 6)
# [10] = postchemotherapy, Month 12, Bim/Bim
# [11] = postchemotherapy, Month 12, Veh/Bim (bimatoprost since month 6)
# [12] = postchemotherapy, Month 12, bimatoprost up to 12 months
# [13] = chemotherapy-induced, 0 to 6 Months (N = 96)
# [14] = chemotherapy-induced, 0 to 12 Months (N = 96)
# [15] = chemotherapy-induced, 6 to 12 Months (N = 89)
# [16] = postchemotherapy, first 6-month study period
# [17] = postchemotherapy, first 6 months, N = 96
compound,measurement,setting,value
"CCNC(=O)CCC/C=C\C[C@@H]1[C@@H](/C=C/[C@@H](O)CCc2ccccc2)[C@H](O)C[C@@H]1O [Bim 0.03%, bimatoprost]","Upper eyelash length, median percent change from baseline",[1]; Month 4,28.50%
same,"Upper eyelash thickness, median percent change from baseline",[1]; Month 4,180.10%
same,"Upper eyelash length, median percent change from baseline","[1]; Month 4, listed as Bimatoprost",28.5 (94) %
same,"Upper eyelash thickness, median percent change from baseline","[1]; Month 4, listed as Bimatoprost",180.1 (64) %
same,"Upper eyelash darkness, median percent change from baseline",[1]; Month 4,−14.40%
same,"Upper eyelash darkness, median percent change from baseline","[1]; Month 4, listed as Bimatoprost",−14.4 (65) %
same,"Upper eyelash length, median percent change from baseline","[1]; Month 6, listed as Bimatoprost",37.8 (94) %
same,"Upper eyelash thickness, median percent change from baseline","[1]; Month 6, listed as Bimatoprost",245.9 (64) %
same,"Upper eyelash length, median percent change from baseline","[1]; Month 6, listed as bimatoprost",37.84%
same,"Upper eyelash thickness, median percent change from baseline","[1]; Month 6, listed as bimatoprost",245%
same,"Upper eyelash darkness, median percent change from baseline",[1]; Month 6,−16.3 (65) %
same,Mean change from baseline in average progressive eyelash thickness,[1]; [3],0.67 mm^2
same,Mean change from baseline in eyelash length,[1]; [3],1.48 mm
same,Mean change from baseline in average progressive eyelash thickness,[1]; [4],0.67 ± 0.514 mm^2
same,Mean change from baseline in eyelash length,[1]; [4],1.48 ± 1.391 mm
same,Mean change from baseline in eyelash darkness,"[1]; postchemotherapy, Month 4",−22.48
same,"Eyelash length, mean percent increase from baseline","[1]; postchemotherapy, Month 6",48.08%
same,"Eyelash thickness, mean percent increase from baseline","[1]; postchemotherapy, Month 6",428%
same,Mean change from baseline in average progressive eyelash thickness,[1]; [5],0.83 mm^2
same,Mean change from baseline in eyelash length,[1]; [5],1.99 mm
same,Mean change from baseline in average progressive eyelash thickness,[1]; [6],0.83 ± 0.576 mm^2
same,Mean change from baseline in eyelash length,[1]; [6],1.99 ± 1.557 mm
same,Mean change from baseline in average progressive eyelash thickness,[1]; [7],0.83 mm^2
same,Mean change from baseline in eyelash length,[1]; [7],1.99 mm
same,Mean change from baseline in eyelash darkness,"[1]; postchemotherapy, Month 6",−26.46
same,Mean change from baseline in average progressive eyelash thickness,[1]; [8],0.88 ± 0.516 mm^2
same,Mean change from baseline in eyelash length,[1]; [8],2.14 ± 1.455 mm
same,Mean change from baseline in average progressive eyelash thickness,[1]; [9],0.63 ± 1.042 mm^2
same,Mean change from baseline in eyelash length,[1]; [9],2.27 ± 1.439 mm
same,Mean change from baseline in average progressive eyelash thickness,[1]; [10],0.85 ± 0.575 mm^2
same,Mean change from baseline in eyelash length,[1]; [10],2.01 ± 1.504 mm
same,Mean change from baseline in average progressive eyelash thickness,[1]; [11],0.58 ± 1.085 mm^2
same,Mean change from baseline in eyelash length,[1]; [11],2.07 ± 1.442 mm
same,"Eyelash length, mean percent increase from baseline",[1]; [12],49.88%
same,"Eyelash length, median percent increase from baseline",[1]; [12],39.08%
same,"Eyelash thickness, mean percent increase from baseline",[1]; [12],478%
same,"Eyelash thickness, median percent increase from baseline",[1]; [12],212%
same,Conjunctival hyperaemia,[2]; [13],15.6%
same,Erythema of eyelid,[2]; [13],1.0%
same,Eye pruritus,[2]; [13],5.2%
same,Eyelids pruritus,[2]; [13],3.1%
same,Punctate keratitis,[2]; [13],8.3%
same,Skin hyperpigmentation,[2]; [13],3.1%
same,Conjunctival hyperaemia,[2]; [14],16.7%
same,Erythema of eyelid,[2]; [14],3.1%
same,Eye pruritus,[2]; [14],6.3%
same,Eyelids pruritus,[2]; [14],3.1%
same,Punctate keratitis,[2]; [14],9.4%
same,Skin hyperpigmentation,[2]; [14],5.2%
same,Mean change from baseline in IOP,"[2]; chemotherapy-induced, 2-month visit, IOP measured in mm Hg",−1.22
same,Conjunctival hyperaemia,[2]; [15],1.1%
same,Erythema of eyelid,[2]; [15],2.2%
same,Eye pruritus,[2]; [15],1.1%
same,Eyelids pruritus,[2]; [15],1.1%
same,Punctate keratitis,[2]; [15],1.1%
same,Skin hyperpigmentation,[2]; [15],2.2%
same,Subjects reporting at least 1 adverse event,[2]; [16],57.3%
same,Subjects reporting treatment-related adverse events,[2]; [16],27.1%
same,Treatment-related adverse events reported as severe,"[2]; postchemotherapy, first 6 months",None
same,Treatment-related conjunctival hyperaemia,[2]; [17],12 subjects
same,Treatment-related eye pruritus,[2]; [17],3 subjects
same,Treatment-related eyelid irritation,[2]; [17],2 subjects
same,Treatment-related eyelids pruritus,[2]; [17],3 subjects
same,Treatment-related punctate keratitis,[2]; [17],7 subjects
same,Treatment-related skin hyperpigmentation,[2]; [17],3 subjects
